Results as given in publication PMC7913925, “Design and Evaluation of a Polypeptide That Mimics the Integrin Binding Site for EDA Fibronectin to Block Profibrotic Cell Activity” (International Journal of Molecular Sciences, 2021).
Bridges are numbered along the chain shown (N, C = ends). Where no end group is shown, it is not given here.

What was measured:
[1] = system: NIH/3T3 fibroblasts, collagen gel contraction; experiment: Collagen gel contraction assay; type: cell-based, mouse; conditions: TGF-β1 10 ng/mL + AF38Pep 10 µg/mL vs TGF-β1 alone
Protocol: Approximately 2 × 10^4/mL NIH/3T3 fibroblasts were added to a solution containing 3 mg/mL rat tail collagen type I (BD Biosciences, San Diego, CA, USA), 260 mM NaHCO3, 200 mM HEPES and 50 mM NaOH. To each well of a 24-well cell culture plate, 500 µL of collagen-cell solution was added and allowed to polymerize at 37 °C for 1 h. The gels were carefully detached from the well walls before resuspension of gels in 1% FBS-DMEM and maintained at 37 °C, in a 5% CO2 atmosphere for 24 h. The DMEM medium was removed and replaced with serum-free DMEM medium with or without 10 ng/mL TGF-β1 and/or 10 µg/mL AF38Pep. Gels were photographed and measured at days 0, 1, 2, 4, and 6 after treatment. The average contraction values were obtained using ImageJ v1.37c (NIH, Bethesda, MD, USA) and are expressed as a percentage of contraction versus the initial gel diameter at 0 days.

[2] = molecular target: COL-RGD (RGD motif of collagen I) (Homo sapiens, UniProt P02452); experiment: Isothermal calorimetry, AF38Pep with COL-RGD; type: binding; conditions: 25 °C, pH 7
Protocol: Custom designed peptides were resuspended in sterile-filtered HEPES buffered saline (140 mM NaCl, 1.5 mM Na2HPO4, 50 mM HEPES; pH 7). The larger EDA-FN binding peptide was diluted to 15 µM, degassed and added to the calorimetry chamber well. Three smaller test peptides (fibronectin EDA-peptide, FN-EDA; fibronectin RGD-peptide, FN-RGD and collagen I RGD-peptide, COL-RGD) were diluted to 300 µM, degassed and each was separately loaded into the calorimetry injection needle. The chamber well temperature was kept consistent at 25 °C. Blank buffer was used to replace either the well peptide or the injection needle peptide to account for background heat generation. Isothermal titration calorimetry was performed using a MicroCal iTC200 (Malvern Panalytical, Malvern, UK) and dissociation constant (KD) and association constant (KA) were calculated using the one set of sites model fitting (with number of binding sites assumed to be 1) in MicroCal Origin Software v8.5 (Malvern Panalytical).

[3] = system: Ltbp1 mRNA in NIH/3T3 fibroblasts; experiment: qRT-PCR Ltbp1 mRNA; type: cell-based, mouse; conditions: 48 h, TGF-β1 10 ng/mL
Protocol: Reverse transcription (RT) and real-time quantitative PCR (qRT-PCR) were used to assess ACTA2/Acta2, Col1a1, Col3a1, Fn1, Eda-Fn1, Mmp9, Tgfb1, Ltbp1, Hic5, and Mrtfa mRNA expressions. Custom PCR primers were designed in-house (Table 2) and then synthesized by BGI (Beijing, China). Cells were grown in 6-well culture plates and washed with phosphate buffered saline (PBS) before lysis with TRIzon Reagent (CWBio, Beijing, China) and total RNA purification according to the manufacturer’s protocol. Reverse transcription was carried using the TransScript First-Strand cDNA Synthesis SuperMix kit according to the manufacturer’s protocol (TransGen, Beijing, China), using the random primer method for the initiation of cDNA synthesis. Nuclease-free H2O replaced the RNA sample to serve as a negative control for the reverse transcription reaction. For qRT-PCR, 10 µL 2× TransStart Top Green qPCR SuperMix was added to each well of a 96-well PCR plate containing 0.4 µL forward primer, 0.4 µL reverse primer, […], and nuclease-free water to a total volume of 20 µL. The qRT-PCR reaction was completed using a CFX96 Real-Time PCR Detection System (Bio-Rad Laboratories, Hercules, CA, USA). Amplification used the following parameters: 94 °C for 30 s, followed by 40 cycles of 94 °C for 5 s, 55 °C for 15 s, 72 °C for 10 s, and then a dissociation stage (melt-curve). […]

[4] = system: EDA-FN; experiment: Western blot total protein EDA-FN; type: cell-based; conditions: 48 h, TGF-β1+AF38Pep
[5] = system: pro-MMP2; experiment: Gelatinase zymography pro-MMP2; type: cell-based, mouse; conditions: 48 h, TGF-β1 10 ng/mL, AF38Pep 10 µg/mL, conditioned medium
Protocol: Conditioned media were collected from cells incubated with serum-free medium (SFM) alone, SFM containing 10 ng/mL TGF-β1, SFM containing 10 µg/mL AF38Pep, or SFM containing both 10 ng/mL TGF-β1 and 10 µg/mL AF38Pep. Conditioned medium was concentrated 10× by filtrating spin columns (Amicon Ultra-4 10 kDa MWCO, Merck Millipore) and protein was quantified by Micro BCA Protein Assay Kit (Thermo Fisher Scientific). A 1.5 mm thick 10% nonreducing acrylamide gel containing gelatin was prepared and 10 µg of sample in 5 × nonreducing buffer was loaded into the gel lanes. The gel was run at 100 V until the protein entered the stacking gel layer, then the voltage was increased to 150 V until the marker achieved resolved band separation. The gels were then washed twice for 30 min using wash buffer to remove SDS and renature the enzymes. Gels were further rinsed for 5–10 min in incubation buffer at 37 °C with agitation to activate the gelatinase reaction. Fresh incubation buffer was added, and the gels were incubated overnight at 37 °C. Gels were stained with staining solution containing Coomassie blue for between 30 min to 1 h, before rinsing with ddH2O and subsequent incubation with de-stain solution until bands could be observed. The gels were transferred to 2% acetic acid and rehydrated overnight for imaging by scanner.

Q: Which collagen gel contraction ([1]; 96 h) does the source give for “VMPYISTTPAKPCTSENCGNSWYGGFKSKNENKIYFIN (disulfide 13-18 (inferred)) [AF38Pep]” here?
A: significantly delayed collagen gel contraction

Q: What about the collagen gel contraction ([1]; 144 h) of the same sequence?
A: maintained a significant difference in contraction

Q: What about the “ITC interaction (thermogram)” value [2] of the same sequence?
A: not between AF38Pep and FN-RGD or COL-RGD

Q: What about the “LTBP1 mRNA expression” value [3] of the same sequence?
A: attenuated

Q: What about the “TGF-β1-driven EDA-FN total protein increase” value [4] of the same sequence?
A: marginally, but significantly, attenuated

Q: What about the pro-MMP2 gelatinase activity [5] of the same sequence?
A: suppressed activity levels
